Source: patent publication US6420563B1, “Small molecule modulators of G protein-coupled receptor six” (Arena Pharmaceuticals, Inc., priority 1998, dated 2002)

Tests used:
[1] = Locomotor activity cages (motor function); type: in vivo, rat; details: IP
Experimental: The effect of ARE112 on motor function was also examined. Motor function was assessed by using automated locomotor activity cages. Animals were placed in a standard rodent cage surrounded by photocell, which allowed for automated recording of motor activity. Animals were under no motivational constraints and were free to move around the cage.
Male Sprague-Dawley rats (n=4-9 per dose) were administered ARE112 (IP) prior to placement into in locomotor activity cages.

[2] = Startle reflex in non-food deprived rats, oral administration; type: in vivo, rat; details: […] prior to testing, 12 db pre-pulse then 120 db pulse
Experimental: As further evidence of this mild sedative activity, animals were measured to determine their startle reflexes. In this assay, ARE112 was orally administered in non-food deprived rats 4.5 hours prior to testing. Animals were subjected to a pre-pulse of 12 db followed by a 120 db pulse and subsequently measured for the height in which the animals jumped.

- locomotor activity ([1]; 1.5 hour immediately after injection): does not affect locomotor activity
- locomotor activity ([1]; 16 hours post-injection): decreases locomotor activity
- startle reflex (height jumped) ([2]; 13.5 mg/kg oral): did not jump as high
- startle reflex (height jumped) ([2]; 54 mg/kg oral): did not jump as high
Structure (SMILES): O=C(N=C1SSC2=NCCN21)c1cccs1 [ARE112, N-(5,6-dihydro-3H-imidazo[2,1-c]-1,2,4-dithiazol-3-ylidene)-thiophen-2-carboxamide]
